These results are taken from patent US10718760B2, “Method for drug binding analysis in a tissue sample” (Treat4Life AB, priority 2015, dated 2020).

This assay deals with BRAF target protein with V600E mutation (Homo sapiens, UniProt P15056, V600E). Briefly: MALDI-MSI displacement competitive binding on malignant melanoma tissue sections. The note with it: for Isotope Signal: 1 hour, MS/MS m/z 389.1.
Chain of BRAF target protein with V600E mutation (P15056 whole entry V600E): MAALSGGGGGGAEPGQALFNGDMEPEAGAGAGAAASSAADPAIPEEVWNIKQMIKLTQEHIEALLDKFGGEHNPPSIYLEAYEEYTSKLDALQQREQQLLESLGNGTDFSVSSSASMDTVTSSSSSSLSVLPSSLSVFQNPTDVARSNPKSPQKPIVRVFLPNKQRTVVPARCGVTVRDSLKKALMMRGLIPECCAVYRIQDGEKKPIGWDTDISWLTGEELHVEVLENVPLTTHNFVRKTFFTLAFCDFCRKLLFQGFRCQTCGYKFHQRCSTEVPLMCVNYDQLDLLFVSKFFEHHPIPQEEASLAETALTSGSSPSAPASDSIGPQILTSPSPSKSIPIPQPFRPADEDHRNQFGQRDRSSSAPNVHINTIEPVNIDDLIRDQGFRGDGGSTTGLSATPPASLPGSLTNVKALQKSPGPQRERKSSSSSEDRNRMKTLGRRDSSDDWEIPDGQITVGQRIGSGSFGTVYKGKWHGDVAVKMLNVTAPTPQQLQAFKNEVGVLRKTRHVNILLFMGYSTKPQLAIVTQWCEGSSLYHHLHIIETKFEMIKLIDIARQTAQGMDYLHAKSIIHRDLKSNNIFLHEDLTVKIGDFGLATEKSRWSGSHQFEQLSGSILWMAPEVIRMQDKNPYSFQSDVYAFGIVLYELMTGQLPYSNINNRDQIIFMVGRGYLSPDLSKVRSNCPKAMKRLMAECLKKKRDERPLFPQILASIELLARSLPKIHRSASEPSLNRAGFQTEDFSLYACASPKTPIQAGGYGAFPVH

Protocol: (1) Making 10 micrometer sectioning of the frozen Human Malignant Melanoma tissues performed at −20° C. Thereafter, (2) sample preparation was preformed by slowly thawing and drying the tumor sections at room temperature. Then, the sections were immersed into methanol for 5 min and dried at room temperature. Correspondingly, frozen Human healthy tissue resected from lymphoid nodes were handled in the same way, and used as negative controls. (3) Drug incubation was performed for one hour by using unlabeled ligand, here Vemurafenib, at a concentration of 100 nM (nanomolar) to determine the binding of the ligand molecule to its protein target. […] During titration experiments, the concentration of stable isotope labeled Vemurafenib was 100 nM, 1 μM, 10 μM and 100 μM, (micro Molar), respectively. (4) After incubation, the sections were washed by PBS 3 times and then followed by washing with MilliQ water 3 consecutive times, and (5) mass spectra were obtained using a MALDI LTQ-Orbitrap XL instrument (Thermo Scientific, Germany), and compound signals were obtained by the orbitrap and ion trap. Image analysis was conducted using ImageQuest (Thermo Scientific, Germany). For histological analysis, both H&E staining and immuno-histochemical analysis using monoclonal antibody against BRAF V600E were conducted.
The frozen Human Malignant Melanoma tissues were resected from lymphoid nodes, constituting the tumor tissue. The tissue sections were sections with 10 μm (micro meter) slices thick by the use of a cryostat, performed at −20° C. After sectioning, the slices were slowly thawed and dried at room temperature. Then, the sections were immersed into methanol for 5 min and dried at room temperature. Correspondingly, frozen Human healthy tissue resected from lymphoid nodes was used as negative controls.
Incubation was made for one hour by using unlabeled Vemurafenib at a concentration of 100 nM (nanomolar) to determine the binding of the drug molecule to its protein target. […] The incubation time during competitive binding was 1 hour. […] During titration experiments, the concentration of stable isotope labeled Vemurafenib was 100 nM, 1 μM, 10 μM and 100 μM, (micro Molar), respectively.
After incubation, the sections were washed by PBS 3 times and then followed by washing with MilliQ water 3 consecutive times.
The mass spectra were obtained using a MALDI LTQ-Orbitrap XL instrument (Thermo Scientific, Germany). The compound signals were obtained by the orbitrap and ion trap. Image analysis was conducted using ImageQuest (Thermo Scientific, Germany). For histological analysis, both H&E staining and immuno-histochemical analysis using monoclonal antibody against BRAF V600E were conducted.
Binding intensity was calculated by identifying the area of biding from the mass spec image and the intensity read is calculated by the ImageQuest software of the instrument from the signal and background data.

In the case of ^13C-Vemurafenib, the “Isotope Signal” value runs as follows: (0.1 μM ^13C-Vemurafenib co-incubated with 100 nM Vemurafenib) 326; (1 μM ^13C-Vemurafenib co-incubated with 100 nM Vemurafenib) 3233; (10 μM ^13C-Vemurafenib co-incubated with 100 nM Vemurafenib) 29870; (100 μM ^13C-Vemurafenib co-incubated with 100 nM Vemurafenib) 259400. The “Competition with 100 nM Vemurafenib” value (1 μM ^13C-Vemurafenib co-administered, m/z 389.1, V600E patient tissue) is given as “outcompeting the 100 nM Vemurafenib”.
